ChEMBL document CHEMBL2440076, “New triarylpyrazoles as broad-spectrum anticancer agents: design, synthesis, and biological evaluation” (Eur J Med Chem, 2013)

Key:
LOX IMVI = test: Growth inhibition of human LOXIMVI cells assessed as cell growth at 10 uM after 48 hrs by sulforhodamine B assay; type: functional; settings: read-out: Activity
OVCAR-5 [1] = test: Growth inhibition of human OVCAR5 cells assessed as cell growth at 10 uM after 48 hrs by sulforhodamine B assay; type: functional; settings: OVCAR-5, 48 h, read-out: Activity
A549 = test: Growth inhibition of human A549/ATCC cells assessed as cell growth at 10 uM after 48 hrs by sulforhodamine B assay; type: functional; settings: A549, 48 h, read-out: Activity
OVCAR-8 = test: Growth inhibition of human OVCAR8 cells assessed as cell growth at 10 uM after 48 hrs by sulforhodamine B assay; type: functional; settings: OVCAR-8, 48 h, read-out: Activity
NCI-H322M = test: Growth inhibition of human NCI-H322M cells assessed as cell growth at 10 uM after 48 hrs by sulforhodamine B assay; type: functional; settings: read-out: Activity
Malme-3M = test: Growth inhibition of human MALME-3M cells assessed as cell growth at 10 uM after 48 hrs by sulforhodamine B assay; type: functional; settings: read-out: Activity
SK-MEL-5 [2] = test: Growth inhibition of human SK-MEL-5 cells assessed as cell growth at 10 uM after 48 hrs by sulforhodamine B assay; type: functional; settings: SK-MEL-5, 48 h, read-out: Activity
HCT-15 = test: Growth inhibition of human HCT15 cells assessed as cell growth at 10 uM after 48 hrs by sulforhodamine B assay; type: functional; settings: HCT-15, 48 h, read-out: Activity
RXF 393 [3] = test: Growth inhibition of human RXF393 cells assessed as cell growth at 10 uM after 48 hrs by sulforhodamine B assay; type: functional; settings: RXF 393, 48 h, read-out: Activity
CCRF-CEM [4] = test: Growth inhibition of human CCRF-CEM cells assessed as cell growth at 10 uM after 48 hrs by sulforhodamine B assay; type: functional; settings: read-out: Activity
U-251 = test: Growth inhibition of human U251 cells assessed as cell growth at 10 uM after 48 hrs by sulforhodamine B assay; type: functional; settings: U-251, 48 h, read-out: Activity
PC-3 = test: Growth inhibition of human PC3 cells assessed as cell growth at 10 uM after 48 hrs by sulforhodamine B assay; type: functional; settings: PC-3, 48 h, read-out: Activity
CAKI-1 = test: Growth inhibition of human CAKI-1 cells assessed as cell growth at 10 uM after 48 hrs by sulforhodamine B assay; type: functional; settings: CAKI-1, 48 h, read-out: Activity
[5] = Growth inhibition of human HCC2998 cells assessed as cell growth at 10 uM after 48 hrs by sulforhodamine B assay; type: functional; settings: HCC 2998, 48 h, read-out: Activity
SK-MEL-2 = test: Growth inhibition of human SK-MEL-2 cells assessed as cell growth at 10 uM after 48 hrs by sulforhodamine B assay; type: functional; settings: SK-MEL-2, 48 h, read-out: Activity
T47D = test: Growth inhibition of human T47D cells assessed as cell growth at 10 uM after 48 hrs by sulforhodamine B assay; type: functional; settings: read-out: Activity
786-0 = test: Growth inhibition of human 786-0 cells assessed as cell growth at 10 uM after 48 hrs by sulforhodamine B assay; type: functional; settings: 786-0, 48 h, read-out: Activity
RPMI-8226 = test: Growth inhibition of human RPMI8226 cells assessed as cell growth at 10 uM after 48 hrs by sulforhodamine B assay; type: functional; settings: RPMI-8226, 48 h, read-out: Activity
A498 = test: Growth inhibition of human A498 cells assessed as cell growth at 10 uM after 48 hrs by sulforhodamine B assay; type: functional; settings: A498, 48 h, read-out: Activity
HOP-62 = test: Growth inhibition of human HOP62 cells assessed as cell growth at 10 uM after 48 hrs by sulforhodamine B assay; type: functional; settings: HOP-62, 48 h, read-out: Activity
OVCAR-5 [6] = test: Growth inhibition of human OVCAR5 cells after 48 hrs by sulforhodamine B assay; type: functional; settings: OVCAR-5, 48 h
SK-MEL-5 [7] = test: Growth inhibition of human SK-MEL-5 cells after 48 hrs by sulforhodamine B assay; type: functional; settings: SK-MEL-5, 48 h
CCRF-CEM [8] = test: Growth inhibition of human CCRF-CEM cells after 48 hrs by sulforhodamine B assay; type: functional
MDA-MB-435 = test: Growth inhibition of human MDA-MB-435 cells after 48 hrs by sulforhodamine B assay; type: functional, cell-based; settings: MDA-MB-435, 48 h
BT-549 = test: Growth inhibition of human BT549 cells after 48 hrs by sulforhodamine B assay; type: functional; settings: BT-549, 48 h
NCI-H226 = test: Growth inhibition of human NCI-H226 cells after 48 hrs by sulforhodamine B assay; type: functional; settings: NCI-H226, 48 h
SF-539 = test: Growth inhibition of human SF539 cells after 48 hrs by sulforhodamine B assay; type: functional; settings: SF-539, 48 h
UACC-257 = test: Growth inhibition of human UACC257 cells after 48 hrs by sulforhodamine B assay; type: functional; settings: UACC-257, 48 h
RXF 393 [9] = test: Growth inhibition of human RXF393 cells after 48 hrs by sulforhodamine B assay; type: functional; settings: RXF 393, 48 h
NCI-H23 = test: Growth inhibition of human NCI-H23 cells after 48 hrs by sulforhodamine B assay; type: functional; settings: NCI-H23, 48 h
KM12 = test: Growth inhibition of human KM12 cells after 48 hrs by sulforhodamine B assay; type: functional, cell-based; settings: KM12, 48 h
MCF7 = test: Growth inhibition of human MCF7 cells after 48 hrs by sulforhodamine B assay; type: functional; settings: MCF7, 48 h
HT-29 = test: Growth inhibition of human HT-29 cells after 48 hrs by sulforhodamine B assay; type: functional; settings: HT-29, 48 h
COLO 205 = test: Growth inhibition of human COLO205 cells after 48 hrs by sulforhodamine B assay; type: functional; settings: COLO 205, 48 h
DU-145 = test: Growth inhibition of human DU145 cells after 48 hrs by sulforhodamine B assay; type: functional; settings: DU-145, 48 h
[10] = read-out: LC50 (the source's name)

O=C(Nc1cccc(-n2cc(-c3ccncc3)c(-c3ccc(Cl)c(O)c3)n2)c1)c1ccc(Cl)c(C(F)(F)F)c1
growth at 10 µM (LOX IMVI): 91.3%
growth at 10 µM (OVCAR-5 [1]): 99.6%
growth at 10 µM (A549): 88.8%
growth at 10 µM (OVCAR-8): 96.8%
growth at 10 µM (NCI-H322M): 108%
growth at 10 µM (Malme-3M): 79.5%
growth at 10 µM (SK-MEL-5 [2]): 95.2%
growth at 10 µM (HCT-15): 92.9%
growth at 10 µM (RXF 393 [3]): 104%
growth at 10 µM (CCRF-CEM [4]): 98.8%
growth at 10 µM (U-251): 95.9%
growth at 10 µM (PC-3): 85.7%
growth at 10 µM (CAKI-1): 100%
growth at 10 µM [5]: 123%
growth at 10 µM (SK-MEL-2): 93.7%
growth at 10 µM (T47D): 100%
growth at 10 µM (786-0): 108%
growth at 10 µM (RPMI-8226): 98.1%
growth at 10 µM (A498): 105%
growth at 10 µM (HOP-62): 99.4%

O=C(Nc1cccc(-n2cc(-c3ccncc3)c(-c3ccc(Cl)c(O)c3)n2)c1)Nc1ccc(Cl)c(Cl)c1
GI50 (OVCAR-5 [6]): 2.4 µM
LC50 (concentration killing 50% of cells) (OVCAR-5 [6]): > 32.5 µM
TGI (OVCAR-5 [6]): > 32.5 µM
growth at 10 µM (LOX IMVI): 21.9%
growth at 10 µM (OVCAR-5 [1]): 56.4%
GI50 (SK-MEL-5 [7]): 0.57 µM
LC50 (concentration killing 50% of cells) (SK-MEL-5 [7]): 2.35 µM
TGI (SK-MEL-5 [7]): 1.16 µM
GI50 (CCRF-CEM [8]): 1.03 µM
LC50 (CCRF-CEM [8]): > 32.5 µM
TGI (CCRF-CEM [8]): > 32.5 µM
growth at 10 µM (A549): 4.51%
growth at 10 µM (OVCAR-8): 11.7%
growth at 10 µM (NCI-H322M): 40.6%
GI50 (MDA-MB-435): 1.1 µM
IC50 (MDA-MB-435): 1.1 µM
TGI (MDA-MB-435): 6.05 µM
CC50 (MDA-MB-435; [10]): > 32.5 µM
growth at 10 µM (Malme-3M): 10.3%
GI50 (BT-549): 1.7 µM
LC50 (50% lethal concentration) (BT-549): > 32.5 µM
TGI (BT-549): 16.1 µM
growth at 10 µM (SK-MEL-5 [2]): -40.2%
GI50 (NCI-H226): 1.51 µM
TGI (NCI-H226): > 32.5 µM
CC50 (NCI-H226; [10]): > 32.5 µM
growth at 10 µM (HCT-15): 19.8%
GI50 (SF-539): 1.34 µM
LC50 (concentration killing 50% of cells) (SF-539): > 32.5 µM
TGI (SF-539): 8.97 µM
GI50 (UACC-257): 0.93 µM
TGI (UACC-257): 3.16 µM
CC50 (UACC-257; [10]): > 32.5 µM
growth at 10 µM (RXF 393 [3]): 4.46%
growth at 10 µM (CCRF-CEM [4]): 13.7%
GI50 (RXF 393 [9]): 1 µM
LC50 (concentration killing 50% of cells) (RXF 393 [9]): > 32.5 µM
TGI (RXF 393 [9]): 6.4 µM
GI50 (NCI-H23): 1.22 µM
LC50 (NCI-H23): > 32.5 µM
TGI (NCI-H23): 29.1 µM
GI50 (KM12): 1.01 µM
TGI (KM12): 4.47 µM
CC50 (KM12; [10]): 26.3 µM
GI50 (MCF7): 1.06 µM
LC50 (MCF7): > 32.5 µM
TGI (MCF7): > 32.5 µM
growth at 10 µM (U-251): 12.4%
GI50 (HT-29): 4.89 µM
TGI (HT-29): > 32.5 µM
CC50 (HT-29; [10]): > 32.5 µM
growth at 10 µM (PC-3): 5.43%
growth at 10 µM (CAKI-1): 22.5%
GI50 (COLO 205): 3.96 µM
LC50 (concentration killing 50% of cells) (COLO 205): 22.7 µM
TGI (COLO 205): 9.49 µM
growth at 10 µM (SK-MEL-2): -25.4%
GI50 (DU-145): 1.5 µM
LC50 (DU-145): > 32.5 µM
TGI (DU-145): > 32.5 µM
growth at 10 µM (T47D): 23%
growth at 10 µM (786-0): 30.1%
growth at 10 µM (RPMI-8226): 7.89%
growth at 10 µM (A498): 31.1%
growth at 10 µM (HOP-62): 34.4%

Cc1cc(C(=O)Nc2cccc(-n3cc(-c4ccncc4)c(-c4ccc(Cl)c(O)c4)n3)c2)ccc1Br
growth at 10 µM (LOX IMVI): 86.4%
growth at 10 µM (OVCAR-5 [1]): 109%
growth at 10 µM (A549): 95.3%
growth at 10 µM (OVCAR-8): 95.1%
growth at 10 µM (NCI-H322M): 107%
growth at 10 µM (Malme-3M): 82.6%
growth at 10 µM (SK-MEL-5 [2]): 94.4%
growth at 10 µM (HCT-15): 97.4%
growth at 10 µM (RXF 393 [3]): 91%
growth at 10 µM (CCRF-CEM [4]): 87.2%
growth at 10 µM (U-251): 92.1%
growth at 10 µM (PC-3): 86.8%
growth at 10 µM (CAKI-1): 93.9%
growth at 10 µM (SK-MEL-2): 106%
growth at 10 µM (T47D): 87.7%
growth at 10 µM (786-0): 106%
growth at 10 µM (RPMI-8226): 92.1%
growth at 10 µM (A498): 102%
growth at 10 µM (HOP-62): 98%
